We go through 33 molecules from patent EP0556720B1, “5-Aminoflavone derivatives” (KYOWA HAKKO KOGYO CO., LTD., priority 1992, dated 1993).

Where a name gives a salt, the structure may show the parent alone.

The test system of one assay is HeLaS3 cells. In words: Human uterine cervix carcinoma (HeLaS3) growth inhibition test, neutral red staining. The conditions noted are these: HeLa S3, 72 hours culture with sample, absorbance at 550 nm. The class given is cell-based. The protocol:
Human uterine cervix carcinoma (HeLaS3) growth inhibition test;
Each 0.1 ml of HeLaS3 cells which had been prepared to 3 x 10^4/ml using a medium (referred to as Medium A hereinafter) consisted of MEM medium, 2 mM glutamine and 10% bovine fetal serum was distributed in each well of 96 well-microtiter plate. The plate was cultured at 37 °C for 20 hours in a CO2 gas incubator, each 0.05 ml of samples (test compounds) which had been appropriately diluted with Medium A was added thereto and the mixture was cultured at 37 °C for 72 hours in a CO2 gas incubator. Supernatant was removed, each 0.1 ml of Medium A containing 0.02% neutral red was added to the residue, the mixture was cultured at 37 °C for 1 hour in a CO2 gas incubator and the cells were stained. Supernatant was removed and the residue was washed once with saline. Then, the pigment was extracted with 0.001N hydrochloric acid/30% ethanol and the absorbance at 550 nm was measured with a microplatereader.
As for `Nc1ccc(-c2cc(=O)c3c(N)c(Cl)cc(Cl)c3o2)cc1` [Compound 3, 5-Amino-2-(4-aminophenyl)-6,8-dichloro-4H-1-benzopyran-4-one], the IC50 (in general, the concentration that inhibits the measured activity by half) was 33 µM.

In turn, `CN(C)CCCCCCNc1c(F)cc(F)c2oc(-c3ccc(N(C)C)c(F)c3)cc(=O)c12` [Compound 62, 6,8-Difluoro-2-[4-(N,N-dimethyl)amino-3-fluorophenyl]-5-[6-(N',N'-dimethylamino)hexylamino]-4H-1-benzopyran-4-one] had an IC50 of 7.1 µM. For the molecule `NCCCNc1ccc(-c2cc(=O)c3c(N)ccc(F)c3o2)cc1` [Compound 20, 5-Amino-2-[4-[(3-aminopropyl)amino]phenyl]-8-fluoro-4H-1-benzopyran-4-one], 9.3 µM corresponded to half-maximal inhibition (IC50). The IC50 values of the last two molecules are within 1.5-fold of each other.

As for `CCCCCCNc1c(F)cc(F)c2oc(-c3ccc(NCC(=O)O)c(F)c3)cc(=O)c12` [Compound 75, 2-(4-Carboxymethylamino-3-fluorophenyl)-6,8-difluoro-5-hexylamino-4H-1-benzopyran-4-one], 16 µM corresponded to half-maximal inhibition (IC50). This IC50 is about 1.7-fold higher than that of the molecule before. On the same count and under the same terms, in the case of `Nc1c(F)cc(F)c2oc(-c3ccc(NCCN4CCCC4)c(F)c3)cc(=O)c12` [Compound 41, 5-Amino-6,8-difluoro-2-[3-fluoro-4-[2-(pyrrolidin-1-yl)ethylamino]phenyl]-4H-1-benzopyran-4-one] it was 5 µM; in that of `CN(C)c1ccc(-c2cc(=O)c3c(NCCCCCCN4CCCC4)c(F)cc(F)c3o2)cc1F` [Compound 63, 6,8-Difluoro-2-[4-(N,N-dimethyl)amino-3-fluorophenyl]-5-[6-(pyrrolidin-1-yl)hexylamino]-4H-1-benzopyran-4-one], 7 µM. Still for that read-out and setting: the value for `CCCCCCNc1c(F)cc(F)c2oc(-c3ccc(NCC(=O)OCC)c(F)c3)cc(=O)c12` [Compound 74, 6,8-Difluoro-2-(4-ethoxycarbonylmethylamino-3-fluorophenyl)-5-hexylamino-4H-1-benzopyran-4-one] was 12 µM; that for `CN(C)c1ccc(-c2cc(=O)c3c(NCCCCCCN)c(F)cc(F)c3o2)cc1F` [Compound 65, 5-(6-Aminohexylamino)-6,8-difluoro-2-[4-(N,N-dimethyl)amino-3-fluorophenyl]-4H-1-benzopyran-4-one] was 7 µM; that for `Nc1c(F)cc(F)c2oc(-c3ccc(NCCCCCCN4CCOCC4)c(F)c3)cc(=O)c12` [Compound 55, 5-Amino-6,8-difluoro-2-[3-fluoro-4-(6-morpholinohexylamino)phenyl]-4H-1-benzopyran-4-one] was 11 µM. Same read-out and setting: the value for `CCCCCNc1c(F)cc(F)c2oc(-c3ccc(NCCCN)c(F)c3)cc(=O)c12` [Compound 79, 2-[4-(3-Aminopropylamino)-3-fluorophenyl]-6,8-difluoro-5-pentylamino-4H-1-benzopyran-4-one] was 7.5 µM; that for `CN(C)CCCCCCNc1ccc(-c2cc(=O)c3c(N)c(F)cc(F)c3o2)cc1F` [Compound 53, 5-Amino-6,8-difluoro-2-[4-[6-(N',N'-dimethylamino)hexylamino]-3-fluorophenyl]-4H-1-benzopyran-4-one] was 6.8 µM.

On to `Nc1ccc(-c2cc(=O)c3c(N)ccc(Cl)c3o2)cc1` [Compound 2, 5-Amino-2-(4-aminophenyl)-8-chloro-4H-1-benzopyran-4-one], for which the IC50 came out at 3.2 µM. `C=CCCCCNc1c(F)cc(F)c2oc(-c3ccc(NC)c(F)c3)cc(=O)c12` [Compound 77, 6,8-Difluoro-2-(3-fluoro-4-methylaminophenyl)-5-(5-hexenylamino)-4H-1-benzopyran-4-one] gave an IC50 of 11 µM. Compared with the last molecule, the IC50 is about 3.4-fold higher. Still for that read-out and setting: the value for `Nc1ccc(-c2cc(=O)c3c(N)ccc(Br)c3o2)cc1` [Compound 5, 5-Amino-2-(4-aminophenyl)-8-bromo-4H-1-benzopyran-4-one] was 6.1 µM; that for `Nc1ccc(-c2cc(=O)c3c(N)ccc(F)c3o2)cc1` [Compound 10, 5-Amino-2-(4-aminophenyl)-8-fluoro-4H-1-benzopyran-4-one] was 21 µM.

Molecule `CN(C)c1ccc(-c2cc(=O)c3c(NCCCCCCn4ccnc4)c(F)cc(F)c3o2)cc1F` [Compound 64, 6,8-Difluoro-2-[4-(N,N-dimethyl)amino-3-fluorophenyl]-5-[6-(imidazol-1-yl)hexylamino]-4H-1-benzopyran-4-one] gave a half-inhibitory concentration (IC50) of 3 µM. In turn, `CCCCCCNc1c(F)cc(F)c2oc(-c3ccc(N)c(F)c3)cc(=O)c12` [Compound 67, 2-(4-Amino-3-fluorophenyl)-6,8-difluoro-5-hexylamino-4H-1-benzopyran-4-one] returned an IC50 of 9.4 µM. The same measure, in the same setting: the value for `CN(C)c1ccc(-c2cc(=O)c3c(N)c(F)cc(F)c3o2)cc1F` [Compound 38, 5-Amino-6,8-difluoro-2-[4-(N,N-dimethylamino)-3-fluorophenyl]-4H-1-benzopyran-4-one] was 12 µM. On the same count and under the same terms, the value for `CC(C)CCCNc1c(F)cc(F)c2oc(-c3ccc(N)c(F)c3)cc(=O)c12` [Compound 71, 2-(4-Amino-3-fluorophenyl)-6,8-difluoro-5-(4-methylpentylamino)-4H-1-benzopyran-4-one] was 12 µM.

The next assay deals with MCF-7 cells. In words: Human mammary cancer (MCF-7) growth inhibition test, neutral red staining. Format: cell-based. The conditions noted are these: MCF7, medium with 10^-8M estradiol, 72 hours culture with sample. The protocol:
Human mammary cancer (MCF-7) growth inhibition test;
Each 0.1 ml of MCF-7 cells which had been prepared to 5 x 10^4/ml using a medium (referred to as Medium B hereinafter) prepared by adding 10% bovine fetal serum, 10^-8M estradiol (manufactured by Sigma), 100 units/ml penicillin and 100 µg/ml streptomycin to medium RPMI1640 was distributed in each well of 96 well-microtiter plate. The plate was cultured at 37 °C for 20 hours in a CO2 gas incubator, each 0.05 ml of samples (test compounds) which had been appropriately diluted with Medium B was added thereto and the mixture was cultured at 37 °C for 72 hours in a CO2 gas incubator. Supernatant was removed, each 0.1 ml of Medium B containing 0.02% neutral red was added to the residue, the mixture was cultured at 37 °C for 1 hour in a CO2 gas incubator and the cells were stained. IC50 was calculated according to the same manner as that in Test 2.
`Nc1c(Cl)cc(-c2cc(=O)c3c(N)c(F)cc(F)c3o2)cc1Cl` [Compound 35, 5-Amino-2-(4-amino-3,5-dichlorophenyl)-6,8-difluoro-4H-1-benzopyran-4-one] came in with an IC50 of 0.17 µM. Molecule `Nc1ccc(-c2cc(=O)c3c(N)c(Cl)cc(Cl)c3o2)cc1` [Compound 3, 5-Amino-2-(4-aminophenyl)-6,8-dichloro-4H-1-benzopyran-4-one] had an IC50 of 22 µM.

In the case of `Nc1c(Br)cc(-c2cc(=O)c3c(N)c(F)cc(F)c3o2)cc1Br` [Compound 36, 5-Amino-2-(4-amino-3,5-dibromophenyl)-6,8-difluoro-4H-1-benzopyran-4-one], the 50% inhibitory concentration (IC50) was 0.61 µM. `Nc1c(F)cc(F)c2oc(-c3ccc(NCCN4CCOCC4)c(F)c3)cc(=O)c12` [Compound 42, 5-Amino-6,8-difluoro-2-[3-fluoro-4-(2-morpholinoethylamino)phenyl]-4H-1-benzopyran-4-one] showed an IC50 of 6.1 µM. Same read-out and setting: in the case of `NCCCNc1ccc(-c2cc(=O)c3c(N)ccc(F)c3o2)cc1` [Compound 20, 5-Amino-2-[4-[(3-aminopropyl)amino]phenyl]-8-fluoro-4H-1-benzopyran-4-one] it was 0.094 µM; in that of `Nc1ccc(-c2cc(=O)c3c(N)c(Br)cc(Br)c3o2)cc1` [Compound 6, 5-Amino-2-(4-aminophenyl)-6,8-dibromo-4H-1-benzopyran-4-one], 27 µM; in that of `COCCCCCCNc1c(F)cc(F)c2oc(-c3ccc(N(C)C)c(F)c3)cc(=O)c12` [Compound 61, 6,8-Difluoro-2-[4-(N,N-dimethyl)amino-3-fluorophenyl]-5-(6-methoxyhexylamino)-4H-1-benzopyran-4-one], 0.63 µM. The molecule `Nc1ccc(-c2cc(=O)c3c(N)c(F)ccc3o2)cc1` [Compound 8, 5-Amino-2-(4-aminophenyl)-6-fluoro-4H-1-benzopyran-4-one] registered a half-maximal inhibitory concentration (IC50) of 0.14 µM. Molecule `CN(C)c1ccc(-c2cc(=O)c3c(NCCCCCCO)c(F)cc(F)c3o2)cc1F` [Compound 60, 6,8-Difluoro-2-[4-(N,N-dimethyl)amino-3-fluorophenyl]-5-(6-hydroxyhexylamino)-4H-l-benzopyran-4-one] registered a concentration for half-maximal inhibition (IC50) of 0.34 µM.

`CCCCCCNc1c(F)cc(F)c2oc(-c3ccc(NCC(=O)OCC)c(F)c3)cc(=O)c12` [Compound 74, 6,8-Difluoro-2-(4-ethoxycarbonylmethylamino-3-fluorophenyl)-5-hexylamino-4H-1-benzopyran-4-one] showed an IC50 of 9.2 µM. This IC50 lies about 27-fold higher than the previous one. The same measure, in the same setting: in the case of `CN(C)CCCCCCNc1ccc(-c2cc(=O)c3c(N)c(F)cc(F)c3o2)cc1F` [Compound 53, 5-Amino-6,8-difluoro-2-[4-[6-(N',N'-dimethylamino)hexylamino]-3-fluorophenyl]-4H-1-benzopyran-4-one] it was 6.2 µM; in that of `Nc1ccc(-c2cc(=O)c3c(N)ccc(Cl)c3o2)cc1` [Compound 2, 5-Amino-2-(4-aminophenyl)-8-chloro-4H-1-benzopyran-4-one], 0.37 µM; in that of `CN(C)CCNc1ccc(-c2cc(=O)c3c(N)c(F)cc(F)c3o2)cc1F` [Compound 40, 5-Amino-2-[4-[2-(N',N'-dimethylamino)ethylamino]-3-fluorophenyl]-6,8-difluoro-4H-1-benzopyran-4-one], 0.23 µM. On the same count and under the same terms, in the case of `CCOC(=O)CNc1ccc(-c2cc(=O)c3c(N)c(F)cc(F)c3o2)cc1F` [Compound 44, 5-Amino-6,8-difluoro-2-(4-ethyoxycarbonylmethylamino-3-fluorophenyl)-4H-1-benzopyran-4-one] it was 0.36 µM. Consider `Nc1ccc(-c2cc(=O)c3c(N)ccc(F)c3o2)cc1` [Compound 10, 5-Amino-2-(4-aminophenyl)-8-fluoro-4H-1-benzopyran-4-one], for which half-maximal inhibition (IC50) was put at 0.25 µM. The molecule `COCCCNc1ccc(-c2cc(=O)c3c(N)c(F)cc(F)c3o2)cc1F` [Compound 46, 5-Amino-6,8-difluoro-2-[3-fluoro-4-(3-methoxypropylamino)phenyl]-4H-1-benzopyran-4-one] had an IC50 of 0.11 µM. Same read-out and setting: the value for `CC(Cl)CCCCNc1c(F)cc(F)c2oc(-c3ccc(N)c(F)c3)cc(=O)c12` (stereo not drawn) [Compound 69, 2-(4-Amino-3-fluorophenyl)-5-(5-chlorohexylamino)-6,8-difluoro-4H-1-benzopyran-4-one] was 6 µM; that for `CCCCCCNc1c(F)cc(F)c2oc(-c3ccc(N(C)C)c(F)c3)cc(=O)c12` [Compound 58, 6,8-Difluoro-2-[4-(N,N-dimethyl)amino-3-fluorophenyl]-5-hexylamino-4H-1-benzopyran-4-one] was 0.34 µM.

In turn, `Nc1c(F)cc(F)c2oc(-c3ccc(NCCCCCC(=O)O)c(F)c3)cc(=O)c12` [Compound 57, Sodium salt of 5-amino-2-[4-(5-carboxypentylamino)-3-fluorophenyl]-6,8-difluoro-4H-1-benzopyran-4-one] registered a half-inhibitory concentration (IC50) of 0.73 µM. This IC50 is about 2.1-fold higher than that of the molecule before. Same read-out and setting: the value for `CCOC(=O)CCCCCNc1ccc(-c2cc(=O)c3c(N)c(F)cc(F)c3o2)cc1F` [Compound 56, 5-Amino-6,8-difluoro-2-[4-(5-ethoxycarbonylpentylamino)-3-fluorophenyl]-4H-1-benzopyran-4-one] was 0.91 µM.
